Measurements from publication PMC4501499 (MedChemComm, 2015).

What was measured:
rat UT-A1 = target: T1, rat UT-A1 (Rattus norvegicus, UniProt Q62668); test: UT-A1 inhibition assay; format: cell-based; settings: for UT inhibition activity (in words): text summary of urea transport inhibition (UT-A1 / UT-B, Table 1)
T1 sequence (Q62668 1-929): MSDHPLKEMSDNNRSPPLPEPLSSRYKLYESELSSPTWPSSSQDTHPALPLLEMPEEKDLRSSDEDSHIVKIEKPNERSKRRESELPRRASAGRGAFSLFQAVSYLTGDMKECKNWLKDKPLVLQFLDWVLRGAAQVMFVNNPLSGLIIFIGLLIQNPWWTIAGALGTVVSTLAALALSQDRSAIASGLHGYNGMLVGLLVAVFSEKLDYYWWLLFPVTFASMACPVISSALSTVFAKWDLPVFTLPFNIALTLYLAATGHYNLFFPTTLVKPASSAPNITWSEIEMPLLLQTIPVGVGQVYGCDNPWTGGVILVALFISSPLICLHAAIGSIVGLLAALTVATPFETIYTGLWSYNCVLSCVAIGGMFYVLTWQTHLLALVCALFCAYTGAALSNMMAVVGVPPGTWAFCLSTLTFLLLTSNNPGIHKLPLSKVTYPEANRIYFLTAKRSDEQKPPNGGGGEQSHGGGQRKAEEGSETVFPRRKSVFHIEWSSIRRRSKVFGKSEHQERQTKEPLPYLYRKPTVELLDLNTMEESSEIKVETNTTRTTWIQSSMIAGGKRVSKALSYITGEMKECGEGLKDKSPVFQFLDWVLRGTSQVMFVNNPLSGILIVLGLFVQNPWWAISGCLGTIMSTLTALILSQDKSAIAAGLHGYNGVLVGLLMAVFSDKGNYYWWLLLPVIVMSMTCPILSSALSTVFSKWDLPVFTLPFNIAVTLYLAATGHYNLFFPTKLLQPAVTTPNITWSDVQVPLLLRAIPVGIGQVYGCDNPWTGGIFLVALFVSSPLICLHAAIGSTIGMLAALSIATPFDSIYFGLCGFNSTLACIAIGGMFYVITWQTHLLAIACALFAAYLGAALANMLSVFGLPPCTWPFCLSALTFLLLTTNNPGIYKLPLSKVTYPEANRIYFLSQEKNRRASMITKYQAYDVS

UT-B = target: T2, UT-B (Rattus norvegicus, UniProt P97689); test: UT-B inhibition assay; format: cell-based; settings: concentration-inhibition fit
T2 sequence (P97689 1-384): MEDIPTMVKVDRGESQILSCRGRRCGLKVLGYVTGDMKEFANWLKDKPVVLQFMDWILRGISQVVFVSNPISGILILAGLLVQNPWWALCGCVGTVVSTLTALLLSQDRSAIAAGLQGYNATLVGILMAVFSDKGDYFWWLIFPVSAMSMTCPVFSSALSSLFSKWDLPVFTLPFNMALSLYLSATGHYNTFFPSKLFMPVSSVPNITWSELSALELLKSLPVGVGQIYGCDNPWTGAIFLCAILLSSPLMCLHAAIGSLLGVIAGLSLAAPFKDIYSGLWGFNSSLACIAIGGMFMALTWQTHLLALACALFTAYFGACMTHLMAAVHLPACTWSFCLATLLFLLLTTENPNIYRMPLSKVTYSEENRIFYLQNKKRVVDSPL

[1] = in vitro microsomal stability with NADPH, LC/MS; settings: rat liver microsomes

Row | Compound | [M+H-16] metabolite by LC/MS [1] | UT inhibition activity (in words) (rat UT-A1) | further results
1 | CC(=O)Nc1ccc2c(c1)C(=O)c1cc(NC(C)=O)ccc1-2 [compound 3, 2,7-bisacetamido fluoren-9-one] | detected |  | extent of UT-A1 inhibition at higher concentrations (rat UT-A1; higher concentrations): complete inhibition; reversibility of UT-A1 inhibition (rat UT-A1; incubation near IC50, then washing with PBS): complete reversibility; time to complete inhibition of UT-A1 (rat UT-A1; inhibition kinetics): ≤ 40 s; Hill coefficient, UT-A1 (rat UT-A1; rat UT-A1, concentration-inhibition fit): 0.9; inhibition mechanism (urea competition) (rat UT-A1; urea 80 to 1,600 mM, apparent IC50 independent of urea concentration): non-competitive; Hill coefficient, UT-B (UT-B): 1.1
2 | O=C1c2cc(NC(=O)C(F)(F)F)ccc2-c2ccc(NC(=O)C(F)(F)F)cc21 [compound 7] |  | much less active | 
3 | CS(=O)(=O)Nc1ccc2c(c1)C(=O)c1cc(NS(C)(=O)=O)ccc1-2 [compound 9] |  | strong inhibition | 
4 | O=C(CO)Nc1ccc2c(c1)C(=O)c1cc(NC(=O)CO)ccc1-2 [compound 12] |  | low activity | 

Second part, led by results:

Row | [M+H-16] metabolite by LC/MS [1] | UT inhibition activity (in words) (rat UT-A1) | Compound | further results
5 | not detected |  | CC(=O)Nc1ccc2c(c1)C(=NO)c1cc(NC(C)=O)ccc1-2 [compound 17] | 
6 | not detected |  | CC(=O)Nc1cccc(C(=O)c2cccc(NC(C)=O)c2)c1 [compound 22] | 
7 |  | inactive | CS(=O)(=O)Nc1cccc(C(=O)c2cccc(NS(C)(=O)=O)c2)c1 [compound 24, bismethanesulfonamidobenzophenone] | 
